Measured values from US11535597B2, “Photoreactive ligands and uses thereof” (The Scripps Research Institute, priority 2017, dated 2022).

Test system: proteins in HEK293T cells
Experiment: MS-based mapping of FFF probe-modified peptides (isoTOP, sites of labeling)
Format: binding, human
Settings: for Labeled Peptide (residues) of NPM1 Nucleophosmin: P06748, PDB 2P1B
Procedure, shortened: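 Live cells treated with fragment probes (200-250 μM) in serum-free DMEM, with or without competitor ligands. Proteomes clicked to light/heavy biotin-TEV-azide, streptavidin-enriched, trypsin- then TEV-digested; probe-modified peptides identified by LC-MS/MS with any residue allowed as modified site, isoTOP ratios quantified by CIMAGE.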

Compound: C#CCCC1(CCC(=O)N2CCCCC2Cc2ccccc2)N=N1 (stereo not drawn) [probe 13, 1-(2-Benzylpiperidin-1-yl)-3-(3-(but-3-yn-1-yl)-3H-diazirin-3-yl)propan-1-one]
- Labeled Peptide of GRWD1 Glutamate-rich WD repeat-containing protein 1 (Accession Q9BQ67, residues of probe-labeled peptide, family Uncategorized): 263-287
- Labeled Peptide (IMPDH2 Inosine-5-monophosphate dehydrogenase 2, residues of probe-modified peptide): 110-124
- Labeled Peptide (MAPRE1 (Q15691), residues of the probe-labeled peptide): 223-241
- Labeled Peptide (MCM2 (P49736), residues of the probe-labeled peptide): 797-807
- Labeled Peptide (METTL7A (Q9H8H3), residues of the probe-labeled peptide): 94-105
- Labeled Peptide (NTMT1 (Q9BV86), residues of the probe-labeled peptide): 167-185
- Labeled Peptide (NUP155 (O75694), residues of the probe-labeled peptide): 952-968
- Labeled Peptide (OPA1 (O60313), residues of the probe-labeled peptide): 801-818
- Labeled Peptide (residues) of NPM1 Nucleophosmin (peptide DELHIVEAEAMNYEGSPIK): 55-73
- Labeled Peptide (residues) of NPM1 Nucleophosmin (peptide MSVQPTVSLGGFEITPPVVLR): 81-101
- Labeled Peptide (P12268 IMPDH2 Inosine-5-monophosphate dehydrogenase 2): 110-124
- Labeled Peptide (P24666 ACP1 Low molecular weight phosphotyrosine protein phosp): 42-59
- Labeled Peptide (P31939 ATIC Bifunctional purine biosynthesis protein PURH): 178-194
- Labeled Peptide (residues) of PRDX2 Peroxiredoxin-2 (P32119, peptide TDEGIAYR, PDB 1QMV): 120-127
- Labeled Peptide (Q13867 BLMH Bleomycin hydrolase): 203-218
- Labeled Peptide (Q14240 EIF4A2 Eukaryotic initiation factor 4A-II): 70-83
- Labeled Peptide (protein ACP1 (P24666), residues of probe-labeled peptide): 42-59
- Labeled Peptide (protein ACP1 Low molecular weight phosphotyrosine protein phosp, residues of probe-labeled peptide): 42-59
- Labeled Peptide (protein ANP32A (Q10567), residues of probe-labeled peptide): 117-132
- Labeled Peptide (protein ANP32A Acidic leucine-rich nuclear phosphoprotein 32 fami, residues of probe-labeled peptide): 117-132
- Labeled Peptide (protein ANP32B (Q92688), residues of probe-labeled peptide): 117-132
- Labeled Peptide (protein AP1B1 (Q10567), residues of probe-labeled peptide): 902-913
- Labeled Peptide (protein ATIC (P31939), residues of probe-labeled peptide): 178-194
- Labeled Peptide (protein ATIC Bifunctional purine biosynthesis protein PURH, residues of probe-labeled peptide): 178-194
- Labeled Peptide (protein ATP5F1 (P24539), residues of probe-labeled peptide): 71-90
- Labeled Peptide (protein ATP6V1B2 (P21281), residues of probe-labeled peptide): 83-93
- Labeled Peptide (protein ATP6V1BE1 (P36543), residues of probe-labeled peptide): 200-212
- Labeled Peptide (protein BLMH (Q13867), residues of probe-labeled peptide): 203-218
- Labeled Peptide (protein BLMH Bleomycin hydrolase, residues of probe-labeled peptide): 203-218
- Labeled Peptide (protein CALM3 Calmodulin (P62158), residues of probe-labeled peptide): 128-149
- Labeled Peptide (protein CCT7 T-complex protein 1 subunit eta (Q99832), residues of probe-labeled peptide): 85-106
- Labeled Peptide (protein COPB1 Coatomer subunit beta (P53618), residues of probe-labeled peptide): 262-279
- Labeled Peptide (protein CSTF3 Cleavage stimulation factor subunit 3 (Q12996), residues of probe-labeled peptide): 440-464
- Labeled Peptide (protein DIABLO Diablo homolog, mitochondrial (Q9NR28), residues of probe-labeled peptide): 124-140
- Labeled Peptide (protein DIABLO Diablo homolog, mitochondrial, residues of probe-labeled peptide): 124-140
- Labeled Peptide (protein EEF1A1 Elongation factor 1-alpha 1 (P68104), residues of probe-labeled peptide): 135-146
- Labeled Peptide (protein EEF1G Elongation factor 1-gamma (P26641), residues of probe-labeled peptide): 379-400
- Labeled Peptide (protein EIF3L Eukaryotic translation initiation factor 3 submit (Q9Y262), residues of probe-labeled peptide): 404-419
- Labeled Peptide (protein EIF4A2 Eukaryotic initiation factor 4A-II (Q14240), residues of probe-labeled peptide): 70-83
- Labeled Peptide (protein EIF4A2 Eukaryotic initiation factor 4A-II, residues of probe-labeled peptide): 70-83
- Labeled Peptide (protein ERH Enhancer of rudimentary homolog (P84090), residues of probe-labeled peptide): 18-34
- Labeled Peptide (protein ERH Enhancer of rudimentary homolog, residues of probe-labeled peptide): 18-34
- Labeled Peptide (protein FKBP4 Peptidyl-prolyl cis-trans isomerase (Q02790), residues of probe-labeled peptide): 190-206
- Labeled Peptide (protein FKBP4 Peptidyl-prolyl cis-trans isomerase FKBP4, residues of probe-labeled peptide): 190-206
- Labeled Peptide (protein FKBP10 Peptidyl-prolyl cis-trans isomerase FKBP10 (Q96AY3), residues of probe-labeled peptide): 198-212
- Labeled Peptide (protein KPNA2 Importin subunit alpha-2, residues of the probe-labeled peptide): 301-315
- Labeled Peptide (protein NTMT1 N-terminal Xaa-Pro-Lys N-methyltransferase 1, residues of the probe-labeled peptide): 167-185
- Labeled Peptide (protein O43615 TIMM44 Mitochondrial import inner membrane translocase su): 428-439
- Labeled Peptide (protein P62241 RPS8 40S ribosomal protein S8): 158-170
- Labeled Peptide (protein P62314 SNRNP40 U5 small nuclear ribonucleoprotein Sm D1): 67-86
- Labeled Peptide (protein P62888 RPL30 60S ribosomal protein L30): 58-68
- Labeled Peptide (protein PDCD4 Programmed cell death protein 4 (Q53EL6)): 246-256
- Labeled Peptide (protein PDCD4 Programmed cell death protein 4, residues of the probe-labeled peptide): 246-256
- Labeled Peptide (protein PDS5A Sister chromatid cohesion protein PDS5 homolog A (Q29RF7)): 638-657
- Labeled Peptide (protein PFN1 Profilin-1 (P07737)): 39-54
- Labeled Peptide (protein PHGDH D-3-phosphoglycerate dehydrogenase (O43175)): 295-308
- Labeled Peptide (protein PMPCB Mitochondrial-processing peptidase subunit beta (O75439)): 406-424
- Labeled Peptide (protein PRDX2 Peroxiredoxin-2 (P32119)): 120-127
- Labeled Peptide (protein PRDX2 Peroxiredoxin-2, residues of the probe-labeled peptide): 120-127
- Labeled Peptide (protein PRMT1 Protein argine N-methyltransferase 1 (Q99873)): 380-391
- Labeled Peptide (protein PTPLAD1 3-hydroxyacyl-CoA dehydratase 3 (Q9P035)): 133-146
- Labeled Peptide (protein Q8N3U4 STAG2 Cohesin subunit SA-2): 273-290
- Labeled Peptide (protein Q96DI7 SNRNP40 U5 small nuclear ribonucleoprotein 40 kDa protein): 233-260
- Labeled Peptide (protein Q01082 SPTAN1 Spectrin beta chain, non-erythrocytic 1): 1706-1717
- Labeled Peptide (protein Q12931 TRAP1 Heat shock protein 75 kDa, mitochondrial): 603-619
- Labeled Peptide (protein Q92922 SMARCC1 SWI/SNF complex subunit SMARCC1): 894-905
- Labeled Peptide (protein RBC2 Replication (P35250)): 211-230
- Labeled Peptide (protein RCN1 Reticulocalbin-1 (Q15293)): 91-105
- Labeled Peptide (protein RPL30 60S ribosomal protein L30, residues of the probe-labeled peptide): 58-68
- Labeled Peptide (protein STAG2 Cohesin subunit SA-2, residues of the probe-modified peptide): 273-290
- Labeled Peptide (protein TIMM44 Mitochondrial import inner membrane translocase su, residues of the probe-modified peptide): 428-439
- Labeled Peptide (residues of probe-labeled peptide on TUBA4A Tubulin alpha-4A chain, Accession # P68366): 340-352
